US6391568B1, “Method for determining platelet reactivity in a whole blood sample” (Lionheart Technologies, Inc., priority 1998, dated 2002)

Test system: platelets (surface glycoprotein IIb-IIIa)
Assay: Inhibition of fibrinogen*FITC binding to ADP-activated platelets in whole blood spiked with ReoPro (microtitration well capture)
Format: cell-based
Details: whole blood (CTI 32 μg/ml) pretreated with ReoPro 3 μg/ml; ADP 0, 0.4, 0.8 μM; FIG. 3
Description: The concentration of ReoPro used is that known to inhibit the aggregation of platelets as determined with the use of aggregometry.

In the case of “ReoPro: antiplatelet drug that inhibits binding of fibrinogen to the activated conformer of surface glycoprotein IIb-IIIa”, the “binding of fibrinogen*FITC to platelets (ratio of fibrinogen*FITC signal to CD42*PerCP signal)” value is reported as “inhibits”.
